According to the supplement of paper PMC11061612:

How the values were obtained:
Assay in all cases: Bliss excess, mean over the matrix (fraction); higher = more synergy
[1] = test system: LN-229 (Glioblastoma)
In short: (§1)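 After 24 hours at 37°C and 5% CO2 in 1536-well plates, cells in DMEM/F12 or RPMI plus 10% FBS received two-drug dose matrices for 72 hours. Viability came from CellTiter-Glo 2.0 luminescence and was scaled as inhibition, anchored at 0 by vehicle wells and at 1 by blank wells. Combination Emax is taken as the second-highest inhibition in the matrix, and Bliss excess as the observed combination effect less EA + EB − EA·EB, with EA and EB the single-agent effects.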

[2] = test system: COLO-680N (Esophageal Squamous Cell Carcinoma)
In short: as §1

[3] = test system: CAL-120 (Breast Carcinoma)
In short: as §1

[4] = test system: OAW-42 (Ovarian Carcinoma)
In short: as §1

[5] = test system: SU-DHL-10 (B-Cell Non-Hodgkin's Lymphoma)
In short: as §1

[6] = test system: 23132-87 (Gastric Carcinoma)
In short: as §1

[7] = test system: RERF-LC-Sq1 (Squamous Cell Lung Carcinoma)
In short: as §1

[8] = test system: HSC-39 (Gastric Carcinoma)
In short: as §1

[9] = test system: NCI-H2342 (Lung Adenocarcinoma)
In short: as §1

[10] = test system: MFE-280 (Endometrial Carcinoma)
In short: as §1

[11] = test system: HEC-1 (Endometrial Carcinoma)
In short: as §1

[12] = test system: GP5d (Colorectal Carcinoma)
In short: as §1

[13] = test system: GB-1 (Glioblastoma)
In short: as §1

[14] = test system: IST-MES1 (Mesothelioma)
In short: as §1

[15] = test system: MKN45 (Gastric Carcinoma)
In short: as §1

[16] = test system: RERF-GC-1B (Gastric Carcinoma)
In short: as §1

[17] = test system: LB996-RCC (Kidney Carcinoma)
In short: as §1

[18] = test system: VAL (B-Cell Non-Hodgkin's Lymphoma)
In short: as §1

[19] = test system: RCM-1 (Colorectal Carcinoma)
In short: as §1

[20] = test system: NCI-H23 (Lung Adenocarcinoma)
In short: as §1

SMILES | Bliss excess [1] | Bliss excess [2] | Bliss excess [3] | Bliss excess [4] | Bliss excess [5] | Bliss excess [6] | Bliss excess [7] | Bliss excess [8] | Bliss excess [9] | Bliss excess [10] | Bliss excess [11] | Bliss excess [12] | Bliss excess [13] | Bliss excess [14] | Bliss excess [15] | Bliss excess [16] | Bliss excess [17] | Bliss excess [18] | Bliss excess [19] | Bliss excess [20]
Cn1cnc2c(F)c(Nc3ccc(Br)cc3Cl)c(C(=O)NOCCO)cc21 [Selumetinib] + C[C@@H]1COCCN1C2=NC(=NC(=C2)C3(CC3)[S@](=N)(=O)C)C4=C5C=CNC5=NC=C4 [AZD6738] (first compound max 10 µM, 7x7, partner max 10 µM) | 0.0078 | -0.0258 | 0.0117 | -0.0257 | 0.0181 | -0.0627 | 0.0516 | -0.0391 | -0.0577 | -0.0651 | -0.0317 | 0.0209 | -0.0347 | -0.0374 | -0.0731 | 0.152 | -0.0871 | -0.0657 | -0.132 | 0.0385
CC(=O)Nc1cccc(-n2c(=O)n(C3CC3)c(=O)c3c(Nc4ccc(I)cc4F)n(C)c(=O)c(C)c32)c1 [Trametinib] + Cc1nc(-c2cn3c(n2)-c2ccc(-c4cnn(C(C)(C)C(N)=O)c4)cc2OCC3)n(C(C)C)n1 [Taselisib] (first compound max 1 µM, 7x7, partner max 10 µM) | 0.19 | 0.063 | 0.0676 | 0.109 | 0.0528 | 0.0654 | 0.0906 | 0.184 | 0.0446 | 0.021 | 0.11 | -0.0186 | 0.159 | 0.0469 | -0.0862 | 0.0909 | 0.0519 | 0.101 | 0.0117 | 0.189
CC1(C)CCC(CN2CCN(c3ccc(C(=O)NS(=O)(=O)c4ccc(NCC5CCOCC5)c([N+](=O)[O-])c4)c(Oc4cnc5[nH]ccc5c4)c3)CC2)=C(c2ccc(Cl)cc2)C1 [Venetoclax] + C1CN(CCC1(C(=O)N[C@@H](CCO)C2=CC=C(C=C2)Cl)N)C3=NC=NC4=C3C=CN4 [Capivasertib] (first compound max 1 µM, 7x7, partner max 3 µM) | -0.0394 | -0.0482 | -0.0198 | -0.0539 | -0.0078 | -0.0427 | -0.0391 | -0.0104 | -0.0359 | -0.0377 | -0.0465 | -0.0548 | -0.0038 | -0.033 | -0.0205 | -0.0297 | -0.0573 | 0.0301 | -0.0293 | -0.0081
CC1(C)CCC(CN2CCN(c3ccc(C(=O)NS(=O)(=O)c4ccc(NCC5CCOCC5)c([N+](=O)[O-])c4)c(Oc4cnc5[nH]ccc5c4)c3)CC2)=C(c2ccc(Cl)cc2)C1 [Venetoclax] + C=CCn1c(=O)c2cnc(Nc3ccc(N4CCN(C)CC4)cc3)nc2n1-c1cccc(C(C)(C)O)n1 [AZD1775] (first compound max 1 µM, partner max 1 µM) | -0.0083 | -0.0402 | -0.0309 | -0.0283 | -0.018 | -0.0277 | -0.0437 | 0.0776 | -0.0184 | 0.0767 | -0.0569 | -0.0561 | 0.0144 | -0.0281 | -0.0402 | -0.112 | -0.0466 | 0.0103 | 0.0294 | -0.0533
CC1(C)CCC(CN2CCN(c3ccc(C(=O)NS(=O)(=O)c4ccc(NCC5CCOCC5)c([N+](=O)[O-])c4)c(Oc4cnc5[nH]ccc5c4)c3)CC2)=C(c2ccc(Cl)cc2)C1 [Venetoclax] + CCN(CCO)CCCOc1ccc2c(Nc3cc(CC(=O)Nc4cccc(F)c4)[nH]n3)ncnc2c1 [AZD2811] (first compound max 1 µM, 7x7, partner max 1 µM) | -0.014 | -0.0166 | -0.014 | -0.0059 | -0.0844 | -0.0136 | 0.0197 | 0.0077 | -0.019 | 0.0557 | -0.0262 | -0.0235 | -0.0501 | -0.0327 | -0.066 | 0.0028 | -0.0133 | 0.0158 | -0.0144 | -0.0051
CC1(C)CCC(CN2CCN(c3ccc(C(=O)NS(=O)(=O)c4ccc(NCC5CCOCC5)c([N+](=O)[O-])c4)c(Oc4cnc5[nH]ccc5c4)c3)CC2)=C(c2ccc(Cl)cc2)C1 [Venetoclax] + CN(C)CCCOc1ccc(-c2ccc3ncc4c(c3c2)n(C2CCOCC2)c(=O)n4C)cn1 [AZD0156] (first compound max 1 µM, 7x7, partner max 1 µM) | -0.007 | -0.014 | -0.0307 | -0.0402 | -0.0043 | -0.0015 | -0.0401 | 0.015 | -0.0546 | 0.0338 | 0.0064 | -0.0274 | -0.0206 | -0.0382 | -0.095 | -0.0356 | -0.0398 | 0.0308 | -0.0086 | -0.0114
CC1(C)CCC(CN2CCN(c3ccc(C(=O)NS(=O)(=O)c4ccc(NCC5CCOCC5)c([N+](=O)[O-])c4)c(Oc4cnc5[nH]ccc5c4)c3)CC2)=C(c2ccc(Cl)cc2)C1 [Venetoclax] + COc1cc(Nc2ncc3c(n2)-c2ccc(Cl)cc2C(c2c(F)cccc2OC)=NC3)ccc1C(=O)O [Alisertib] (first compound max 1 µM, 7x7, partner max 10 µM) | -0.041 | -0.0427 | -0.0182 | -0.079 | 0.0409 | -0.0303 | -0.0289 | -0.103 | -0.0792 | -0.0266 | -0.0385 | 0.0453 | -0.03 | -0.0479 | -0.0645 | -0.0274 | -0.0096 | 0.0174 | -0.0717 | 0.14
CC1(C)CCC(CN2CCN(c3ccc(C(=O)NS(=O)(=O)c4ccc(NCC5CCOCC5)c([N+](=O)[O-])c4)c(Oc4cnc5[nH]ccc5c4)c3)CC2)=C(c2ccc(Cl)cc2)C1 [Venetoclax] + C[C@@H]1COCCN1C2=NC(=NC(=C2)C3(CC3)[S@](=N)(=O)C)C4=C5C=CNC5=NC=C4 [AZD6738] (first compound max 1 µM, 7x7, partner max 10 µM) | -0.0601 | -0.0004 | -0.0118 | -0.016 | 0.0138 | -0.0422 | -0.0476 | 0.0079 | -0.0209 | -0.0486 | -0.0267 | -0.0657 | -0.0281 | -0.0101 | -0.0526 | -0.0579 | -0.066 | 0.004 | -0.0542 | 0.0157
CC1(C)CCC(CN2CCN(c3ccc(C(=O)NS(=O)(=O)c4ccc(NCC5CCOCC5)c([N+](=O)[O-])c4)c(Oc4cnc5[nH]ccc5c4)c3)CC2)=C(c2ccc(Cl)cc2)C1 [Venetoclax] + C[C@@H](Nc1cc(F)cc(F)c1)c1cc(C(=O)N(C)C)cc2c(=O)cc(N3CCOCC3)oc12 [AZD8186] (first compound max 1 µM, 7x7, partner max 3 µM) | -0.0267 | -0.0276 | -0.0194 | -0.047 | 0.0052 | -0.036 | -0.0242 | -0.0503 | -0.0643 | -0.0525 | -0.0336 | -0.0188 | -0.0076 | -0.0423 | -0.057 | -0.028 | 0.0035 | 0.0557 | -0.0495 | 0.007
CC1(C)CCC(CN2CCN(c3ccc(C(=O)NS(=O)(=O)c4ccc(NCC5CCOCC5)c([N+](=O)[O-])c4)c(Oc4cnc5[nH]ccc5c4)c3)CC2)=C(c2ccc(Cl)cc2)C1 [Venetoclax] + Cc1cc2ncnn2cc1Nc1ncc2c(n1)n(C1CCOCC1)c(=O)n2C [AZD7648] (first compound max 1 µM, 7x7, partner max 10 µM) | -0.0174 | -0.0293 | -0.0338 | -0.0381 | -0.0139 | -0.0008 | -0.0268 | -0.0289 | -0.0473 | -0.0773 | -0.0286 | -0.0119 | -0.0591 | -0.0284 | -0.0576 | -0.0276 | -0.0258 | 0.012 | -0.0533 | -0.0172
CC1(C)CCC(CN2CCN(c3ccc(C(=O)NS(=O)(=O)c4ccc(NCC5CCOCC5)c([N+](=O)[O-])c4)c(Oc4cnc5[nH]ccc5c4)c3)CC2)=C(c2ccc(Cl)cc2)C1 [Venetoclax] + Cn1cnc2c(F)c(Nc3ccc(Br)cc3Cl)c(C(=O)NOCCO)cc21 [Selumetinib] (first compound max 1 µM, 7x7, partner max 3 µM) | -0.0372 | -0.0243 | -0.0174 | -0.0283 | -0.0123 | -0.0507 | -0.0467 | -0.048 | -0.0628 | -0.0138 | -0.0315 | 0.01 | -0.0366 | -0.0381 | -0.0574 | 0.0095 | -0.0209 | -0.0069 | -0.0369 | -0.0208
